pIC50, pKi: −log10 of the molar value. “Also recorded” adds a separate entry of the source. Where two headings read alike, the source gives them in different places.
Experiments:
glycogen synthase = target: T1, glycogen synthase (Rattus norvegicus, UniProt P17625); test: glycogen synthase in rat hepatocytes; format: cell-based; conditions: at IC50 concentration for glucosylceramidase
T1 construct: endogenous in cells; host or cells: rat hepatocytes
T1 sequence (P17625 1-704): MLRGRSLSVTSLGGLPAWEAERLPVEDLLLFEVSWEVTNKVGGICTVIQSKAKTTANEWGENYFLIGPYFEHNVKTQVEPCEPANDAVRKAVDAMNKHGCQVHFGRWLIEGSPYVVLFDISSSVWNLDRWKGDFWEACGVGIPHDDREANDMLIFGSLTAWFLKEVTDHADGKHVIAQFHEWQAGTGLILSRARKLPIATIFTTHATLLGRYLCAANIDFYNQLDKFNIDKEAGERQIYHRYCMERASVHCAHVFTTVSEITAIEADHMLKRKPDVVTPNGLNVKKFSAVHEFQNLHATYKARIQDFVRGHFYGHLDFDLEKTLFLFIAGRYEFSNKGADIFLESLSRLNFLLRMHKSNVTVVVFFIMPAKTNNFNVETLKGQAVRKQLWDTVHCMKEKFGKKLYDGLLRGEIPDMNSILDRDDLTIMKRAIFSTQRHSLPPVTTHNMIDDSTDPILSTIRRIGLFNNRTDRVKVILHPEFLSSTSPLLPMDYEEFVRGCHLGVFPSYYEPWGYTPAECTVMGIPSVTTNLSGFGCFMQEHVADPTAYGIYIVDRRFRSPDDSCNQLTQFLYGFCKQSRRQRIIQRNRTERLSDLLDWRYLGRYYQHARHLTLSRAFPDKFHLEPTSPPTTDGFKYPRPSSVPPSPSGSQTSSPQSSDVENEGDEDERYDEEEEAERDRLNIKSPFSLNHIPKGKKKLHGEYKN

lysosomal a-glucosidase [1] = target: T2, lysosomal a-glucosidase (Homo sapiens, UniProt P10253); test: lysosomal a-glucosidase in cultured melanoma cells; format: cell-based; parameters: endogenous in cells; conditions: at IC50 concentration for glucosylceramidase
chitotriosidase = chitotriosidase secretion by cultured macrophages; format: cell-based, human
glucocerebrosidase [2] = target: T3, glucocerebrosidase (Homo sapiens, UniProt P04062); test: conduritol B-epoxide inhibitable glucocerebrosidase activity in membrane fraction from human spleen; format: biochemical; conditions: membrane suspension, 4MU-b-glucoside, pH 5.2; read-out: apparent Ki GLUCOCEREBROSIDASE MEMBRANES
T3 sequence (P04062 40-536): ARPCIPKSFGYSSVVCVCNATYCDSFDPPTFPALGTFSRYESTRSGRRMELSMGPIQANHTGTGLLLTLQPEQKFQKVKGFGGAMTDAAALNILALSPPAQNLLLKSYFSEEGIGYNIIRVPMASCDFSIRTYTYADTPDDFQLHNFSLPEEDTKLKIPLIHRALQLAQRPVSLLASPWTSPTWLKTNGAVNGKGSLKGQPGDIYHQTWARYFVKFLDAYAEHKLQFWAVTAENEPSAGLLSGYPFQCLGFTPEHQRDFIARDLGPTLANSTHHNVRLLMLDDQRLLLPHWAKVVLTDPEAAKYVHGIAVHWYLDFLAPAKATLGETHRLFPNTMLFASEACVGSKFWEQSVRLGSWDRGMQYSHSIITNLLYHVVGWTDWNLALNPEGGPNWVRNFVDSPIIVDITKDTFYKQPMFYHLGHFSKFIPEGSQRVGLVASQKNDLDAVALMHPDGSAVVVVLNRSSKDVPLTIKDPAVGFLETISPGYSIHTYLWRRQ

[3] = target: T4, glucocerebrosidase (Ceredase) (Homo sapiens, UniProt P04062); test: activity of soluble human placental glucocerebrosidase (Ceredase) towards 4MU-b-glucoside; format: biochemical; conditions: soluble enzyme, 0.25% sodium taurocholate, 0.1% Triton X-100, pH 5.2; read-out: apparent Ki GLUCOCEREBROSIDASE CEREDASE
T4 construct: purchased Genzyme Corp. Boston,USA; host or cells: human placenta
T4 sequence (P04062 40-536): T3 sequence (P04062 40-536)

lysosomal a-glucosidase [4] = target: T2, lysosomal a-glucosidase; test: purified lysosomal a-glucosidase activity towards 4MU-a-glucoside; format: biochemical
glucosylceramidase [5] = target: T5, glucosylceramidase (Homo sapiens, UniProt Q9HCG7); test: glucosylceramidase activity towards 4MU-b-glucoside in conduritol B-epoxide pre-treated membrane suspension from human spleen; conditions: for inhibition of glucosylceramidase, in words: comparison among N-alkyl derivatives
T5 sequence (Q9HCG7 1-927): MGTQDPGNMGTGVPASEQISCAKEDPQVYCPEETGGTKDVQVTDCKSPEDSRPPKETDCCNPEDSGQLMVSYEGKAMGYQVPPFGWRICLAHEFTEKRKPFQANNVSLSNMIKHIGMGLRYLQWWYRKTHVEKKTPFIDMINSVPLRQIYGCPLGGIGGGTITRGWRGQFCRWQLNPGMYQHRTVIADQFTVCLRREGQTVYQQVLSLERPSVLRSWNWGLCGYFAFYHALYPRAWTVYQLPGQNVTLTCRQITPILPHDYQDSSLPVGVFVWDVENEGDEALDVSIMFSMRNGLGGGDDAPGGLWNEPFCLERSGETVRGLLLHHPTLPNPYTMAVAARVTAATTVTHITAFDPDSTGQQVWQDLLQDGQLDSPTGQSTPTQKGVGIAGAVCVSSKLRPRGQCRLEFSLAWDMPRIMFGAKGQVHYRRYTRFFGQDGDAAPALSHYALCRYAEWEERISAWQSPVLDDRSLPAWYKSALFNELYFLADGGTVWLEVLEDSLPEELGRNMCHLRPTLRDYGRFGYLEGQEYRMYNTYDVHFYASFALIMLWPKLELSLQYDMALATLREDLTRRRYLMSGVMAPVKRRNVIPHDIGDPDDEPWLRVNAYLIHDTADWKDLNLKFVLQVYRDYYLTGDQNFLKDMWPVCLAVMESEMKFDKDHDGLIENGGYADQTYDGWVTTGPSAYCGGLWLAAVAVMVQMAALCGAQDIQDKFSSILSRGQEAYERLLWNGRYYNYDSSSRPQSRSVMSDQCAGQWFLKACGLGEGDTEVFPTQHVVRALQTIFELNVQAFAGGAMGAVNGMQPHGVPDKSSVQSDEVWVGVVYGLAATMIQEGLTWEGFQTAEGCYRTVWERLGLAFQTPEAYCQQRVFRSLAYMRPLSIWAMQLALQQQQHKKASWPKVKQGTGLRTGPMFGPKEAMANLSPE

glucosylceramidase [6] = target: T5, glucosylceramidase; test: glucosylceramidase activity in intact melanoma cells (4MU-b-glucoside, conduritol B-epoxide insensitive); format: cell-based; parameters: endogenous in cells
glucocerebrosidase [7] = target: T3, glucocerebrosidase; test: glucocerebrosidase activity in intact melanoma cells (4MU-b-glucoside, conduritol B-epoxide sensitive); format: cell-based; parameters: the hydrolysis of 4MU-b-glucoside by cultured melanoma cells; endogenous in cells
[8] = target: T6, glucosylceramide synthase (Homo sapiens, UniProt Q16739); test: glucosylceramide synthase activity in cultured macrophages with C6-NBD ceramide; format: cell-based; parameters: glucosylceramide synthase activity in cultured macrophages was also determined; endogenous in cells; host or cells: cultured human macrophages; conditions: presence of PDMP or PPMP
T6 sequence (Q16739 1-394): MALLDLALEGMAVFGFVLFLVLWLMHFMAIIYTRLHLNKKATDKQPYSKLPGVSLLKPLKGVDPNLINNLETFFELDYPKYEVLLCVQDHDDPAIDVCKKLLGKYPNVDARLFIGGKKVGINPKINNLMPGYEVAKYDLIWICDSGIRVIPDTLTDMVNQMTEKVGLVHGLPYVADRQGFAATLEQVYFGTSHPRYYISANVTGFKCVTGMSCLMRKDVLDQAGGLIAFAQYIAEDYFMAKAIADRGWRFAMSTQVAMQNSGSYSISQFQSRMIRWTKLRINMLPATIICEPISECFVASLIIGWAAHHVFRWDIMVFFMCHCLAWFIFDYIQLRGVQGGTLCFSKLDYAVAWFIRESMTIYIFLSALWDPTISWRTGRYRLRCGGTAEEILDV

[9] = 4MU-a-glucoside, pH 4.0, read-out: apparent Ki A-GLUCOSIDASE
[10] = read-out: apparent Ki GLUCOSYLCERAMIDASE, membrane suspension, 4MU-b-glucoside, pH 5.2, competitive inhibition assumed
[11] = read-out: IC50 GLUCOSYLCERAMIDASE
[12] = intact melanoma cells, read-out: IC50 GLUCOCEREBROSIDASE

SMILES | pKi (lysosomal a-glucosidase [4]; [9]) | pIC50 (glucocerebrosidase [7]; [12]) | pKi (glucocerebrosidase [2]) | pKi [3] | inhibition of lysosomal a-glucosidase, in words (lysosomal a-glucosidase [4]) | pKi (glucosylceramidase [5]; [10]) | also measured
OCC1C(O)C(O)C(O)CN1CCCCCOCC12CC3CC(CC(C3)C1)C2 (stereo not drawn) [P21, N-(5-adamantane-1-yl-methoxy-pentyl) deoxynojirimycin] | – | – | – | – | – | – | inhibition of glycogen synthase (glycogen synthase): no inhibition; inhibition of lysosomal a-glucosidase (lysosomal a-glucosidase [1]): no inhibition; activity at 2.5 pM (chitotriosidase; Homo sapiens, Macrophage, 96 h, 0.0025 nM, 4 days, relative to no inhibitor (100%)): 105%; activity at 50 pM (chitotriosidase; Homo sapiens, Macrophage, 96 h, 0.05 nM, 4 days, relative to no inhibitor (100%)): 72%; activity at 0.001 µM (chitotriosidase; Homo sapiens, Macrophage, 96 h, 1 nM, 4 days, relative to no inhibitor (100%)): 64%
CC(C)CCC[C@@H](C)[C@H]1CC[C@H]2[C@@H]3CC=C4C[C@@H](OC(=O)CCCC(=O)N5C[C@H](O)[C@@H](O)[C@H](O)[C@H]5CO)CC[C@]4(C)[C@H]3CC[C@]12C [P9] | < 4.00 | – | < 4.00 | 4.29 | very poor inhibitors | < 4.00 | –
O=C(CCCC(=O)N1C[C@H](O)[C@@H](O)[C@H](O)[C@H]1CO)OC12CC3CC(CC(C3)C1)C2 [P11] | < 4.00 | 5.10 | 5.39 | 3.95 | very poor inhibitors | 3.51 | pIC50 (glucosylceramidase [6]; [11]): 3.70
CC(C)CCC[C@@H](C)[C@H]1CC[C@H]2[C@@H]3CC[C@H]4C[C@@H](OC(=O)CCCC(=O)N5C[C@H](O)[C@@H](O)[C@H](O)[C@H]5CO)CC[C@]4(C)[C@H]3CC[C@]12C [P13] | < 4.00 | – | < 4.00 | 4.95 | very poor inhibitors | < 4.00 | –
O=C(CCCC(=O)N1C[C@H](O)[C@@H](O)[C@H](O)[C@H]1CO)Oc1cc2ccccc2c2ccccc12 [P16] | – | – | 6.36 | 4.94 | very poor inhibitors | – | pKi (lysosomal a-glucosidase [4]; read-out: apparent Ki A-GLUCOSIDASE, 4MU-a-glucoside, pH 4.0): < 4.00; pIC50 (glucocerebrosidase [7]; read-out: IC50 GLUCOCEREBROSIDASE, intact melanoma cells): < 6.00
CCCCCN1C[C@H](O)[C@@H](O)[C@H](O)[C@H]1CO [PENTYLDNJ, N-pentyl DNJ, reference compound] | – | < 6.00 | 5.07 | 3.60 | – | – | pIC50 (glucosylceramidase [6]; IC50 GLUCOSYLCERAMIDASE): 6.82; pKi (lysosomal a-glucosidase [4]): 5.43; pKi (glucosylceramidase [5]): 7.42; inhibition of glucosylceramidase, in words (glucosylceramidase [5]): Optimal inhibition
CCCN1C[C@H](O)[C@@H](O)[C@H](O)[C@H]1CO [PROPYLDNJ, N-propyl DNJ, reference compound] | – | – | 3.48 | 3.26 | – | – | pIC50 (glucosylceramidase [6]; IC50 GLUCOSYLCERAMIDASE): 6.19; pKi (lysosomal a-glucosidase [4]): 5.03; pKi (glucosylceramidase [5]): 6.91; pIC50 (glucocerebrosidase [7]): < 6.00
CCCCCCN1C[C@H](O)[C@@H](O)[C@H](O)[C@H]1CO [N-hexyl-deoxynojirimycin, reference compound] | – | – | – | – | – | – | inhibition of glucosylceramidase, in words (glucosylceramidase [5]): less potent inhibitor
CCCCCCCCCCCCCCCC(=O)NC(CN1CCOCC1)C(O)c1ccccc1 (stereo not drawn) [PPMP, 1-phenyl-2-hexadecanoylamino-3-morpholino-1-propanol] | – | – | – | – | – | – | inhibition of glucosylceramide synthase activity [8]: potently; effect on chitotriosidase secretion (chitotriosidase; cultured macrophages, glucosylceramide synthase inhibited): does not result in reduced; also recorded: without effect
CCCCN1C[C@H](O)[C@@H](O)[C@H](O)[C@H]1CO [BUTYLDNJ, butyl-deoxynojirimycin] | – | – | – | – | – | – | pKi (lysosomal a-glucosidase [4]): 5.19; activity at 0.5 µM (chitotriosidase; Homo sapiens, Macrophage, 96 h, 0.5 uM, 4 days, relative to no inhibitor (100%)): 68%; activity at 5 µM (chitotriosidase; Homo sapiens, Macrophage, 96 h, 5 uM, 4 days, relative to no inhibitor (100%)): 49%; activity at 50 µM (chitotriosidase; Homo sapiens, Macrophage, 96 h, 50 uM, 4 days, relative to no inhibitor (100%)): 28%

More lines, main results first:

pKi (lysosomal a-glucosidase [4]; [9]) | pIC50 (glucocerebrosidase [7]; [12]) | SMILES | pKi (glucocerebrosidase [2]) | pKi [3] | inhibition of lysosomal a-glucosidase, in words (lysosomal a-glucosidase [4]) | pKi (glucosylceramidase [5]; [10]) | also measured
< 4.00 | 5.30 | O=C(CCCC(=O)N1C[C@H](O)[C@@H](O)[C@H](O)[C@H]1CO)OCC12CC3CC(CC(C3)C1)C2 [P4] | 5.49 | 4.71 | very poor inhibitors | 3.34 | pIC50 (glucosylceramidase [6]; [11]): 3.70
5.62 | < 6.00 | CCCCC(=O)N1C[C@H](O)[C@@H](O)[C@H](O)[C@H]1CO [PENTANOYLDNJ, N-pentanoyl DNJ, reference compound] | 4.08 | 3.17 | – | – | pIC50 (glucosylceramidase [6]; [11]): 4.52; pKi (glucosylceramidase [5]): 4.08
